# Reference: patent US6348571B1, “Corticotropin release inhibiting factor and methods of using same” (Northwestern University, priority 1994, dated 2002)
# Tests used:
# [1] = system: SCW-induced inflammatory response; assay: Thyroid status and SCW-induced inflammatory response in female rats; type: in vivo, rat
# Text: RA is an autoimmune disease characterized by chronic degradation of the joints resulting from inflammation of synovial membranes. SCW-induced inflammation in the autoimmune prone female Lewis rat is an accepted animal model for the study of RA. […] It is likely that increased thyroid activity decreases the susceptibility to inflammatory immune disease by increasing glucocorticoid levels. The discovery of CRIF encoded within the same precursor as TRH establishes a direct link between the HPA and thyroid axes. Thyroid hormones may play a fundamental role in regulating the HPA axis by modulation of levels of prepro-TRH mRNA.
# To determine the role played by thyroid hormones and concomitant changes in the HPA axis in the development of SCW-induced inflammatory response, expression of genes which reflect the status of thyroid function (TRH), pituitary-adrenal activity (POMC) and inflammation (IL-1β and MIP-1α, a macrophage specific inflammatory protein) was measured. Adult female rats were fed a regular diet (control), or a regular diet plus 0.012% T4 (hyperthyroid) or 0.05% 6-propyl-thiouracil (PTU) supplied in the in drinking water (hypothyroid), for seven weeks. A preparation of SCW (20 μg/g of body weight) was administered intraperitoneally to the rats three days before decapitation. Anterior pituitary POMC, hypothalamic TRH and peritoneal macrophage IL-1β and MIP-1α mRNA levels were assessed by Northern blot hybridization analysis using specific cDNA probes. The levels of mRNA were normalized to the housekeeping gene, GAPD, and were quantified by image analysis densitometry. Plasma levels of TSH and CORT were determined by RIA.
# [2] = system: SCW-induced inflammatory response; settings: Rittenhouse et al., 1995; cited from earlier work
# AtT-20 cells = assay: Transfection of AtT-20 cells with prepro-TRH expression plasmids: ACTH secretion (RIA); type: cell-based, mouse; settings: concluded from deletion studies and known prepro-TRH processing
# Text: The expression vector pCMV-TRH comprises cDNA encoding rat TRH under the control of the human cytomegalovirus (HCMV) immediate early promoter (Lee et al., 1988, J. Biol. Chem. 263:16604-16609). To generate this vector, a 1,322 bp fragment comprising sequences encoding TRH was excised from the plasmid pSP64, by digestion with HindIII and EcoRI. This fragment was then inserted into pcDNA-3 (Invitrogen, San Diego, Calif.) to generate pCMV-TRH comprising the HCMV immediate early promoter, the bovine growth hormone polyadenylation signal and cDNA encoding TRH inserted therebetween. This plasmid also contains sequences encoding resistance to neomycin and can therefore be used to select stably transfected cells.
# Referring to FIG. 1, two deletions were made in the expression vector pCMV-TRH. The first deletion, ΔBstEII, contains a deletion between nucleotides 506 and 787 in TRH cDNA. […] To generate ΔBstEII, pCMV-TRH was digested with BstEII, and a 6.4 kb fragment was isolated therefrom. The 5′ sticky ends were filled in with Klenow to create blunt ends, and the 6.4 kb fragment was then religated to form ΔBstEII. This religation results in restoration of the original wild type reading frame. […]
# ACTH-like immunoreactivity was measured using an antiserum which reacts with amino acids 1-24 and 1-39 on ACTH on an equimolar basis. […]
# GH3 cells = assay: T3 treatment of GH3 cells transfected with human prepro-TRH: TRH mRNA expression; type: cell-based, rat; settings: 1-100 nM
compound,measurement,setting,value
"N[C@@H](Cc1cc(I)c(Oc2cc(I)c(O)c(I)c2)c(I)c1)C(=O)O [T4, thyroxin]",increase in macrophage MIP-1α mRNA levels on SCW administration,"[1]; SCW 20 μg/g ip, SCW-administered control rats 17-fold",1.7 fold
same,plasma CORT levels,"[1]; altered thyroid status, FIG. 12E",significant increase
same,decrease of hypothalamic TRH mRNA levels,"[1]; hyperthyroid group, 0.012% in diet, seven weeks",20%
same,inflammatory effects of SCW-induced autoimmune responses,[2],decreases the adverse inflammatory effects
"prepro-TRH 172-199: includes the uncleaved fourth TRH portion covalently bound to the amino terminal portion of peptide 178-199 (QHPGRRFIDPELQRSWEEKEGEGVLMPE; UniProt P01150 172-199, looked up, fragment)",CRIF activity,AtT-20 cells,has CRIF activity
N[C@@H](Cc1cc(I)c(Oc2ccc(O)c(I)c2)c(I)c1)C(=O)O [T3],expression of TRH mRNA,GH3 cells,suppressing expression of TRH mRNA
